The values below are quoted from earlier work in article PMC9318694 (Molecules, 2022).

The target of this data set is D2R (Homo sapiens, UniProt P14416). The conditions noted are these: cited from earlier work.
Setting [1] is: Table S1, data set of actives, radio-ligand binding assays, ref ChEMBL, [50]-[70], read-out: KI.
The mark [2] stands for this setting: Table S2, data set of inactives, radio-ligand binding (RLB) assays, ref ChEMBL, [71]-[92], read-out: KI.

Where a name gives a salt, the structure may show the parent alone. Read-outs that look alike come from different tables or passages of the source.

D2R, sequence (P14416 whole entry): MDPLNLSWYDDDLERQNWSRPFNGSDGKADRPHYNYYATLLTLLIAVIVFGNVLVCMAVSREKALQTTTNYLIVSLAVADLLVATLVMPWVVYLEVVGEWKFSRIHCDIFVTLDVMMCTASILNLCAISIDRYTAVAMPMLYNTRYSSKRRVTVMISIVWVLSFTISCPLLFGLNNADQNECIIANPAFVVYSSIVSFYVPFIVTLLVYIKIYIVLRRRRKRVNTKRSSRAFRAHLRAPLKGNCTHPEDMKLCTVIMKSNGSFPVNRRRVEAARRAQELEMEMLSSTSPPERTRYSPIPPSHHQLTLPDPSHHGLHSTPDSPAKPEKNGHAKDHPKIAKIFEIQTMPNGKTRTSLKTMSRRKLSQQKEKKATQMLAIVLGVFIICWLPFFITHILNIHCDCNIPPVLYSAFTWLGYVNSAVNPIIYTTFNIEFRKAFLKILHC

Take `CCCN(CCCCNC(=O)c1cc2ccccc2[nH]1)[C@@H]1Cc2cccc3c2n(c(=O)n3CCC)C1` [SC47, (R)-N-(4-((2-oxo-1-propyl-1,2,5,6-tetrahydro-4H-imidazo[4,5,1-ij]quinolin-5-yl)(propyl)amino)butyl)-1H-indole-2-carboxamide]: under “read-out: KI”, the Ki was 0.00843 µM.

As for `CN[C@@H]1Cc2cccc3c2n(c(=O)n3CCOCCOCCOCCOc2ccc3c(c2)NC(=O)CC3)C1` [SC48, (R)-5-(methylamino)-1-(2-(2-(2-(2-((2-oxo-1,2,3,4-tetrahydroquinolin-7-yl)oxy)ethoxy)ethoxy)ethoxy)ethyl)-5,6-dihydro-4H-imidazo[4,5,1-ij]quinolin-2(1H)-one], the Ki under setting [1] is 0.306 µM.

As to `CN(CCCCOc1ccc2c(c1)NC(=O)CC2)[C@@H]1Cc2cccc3[nH]c(=O)n(c23)C1` [SC49, (R)-5-(methyl(4-((2-oxo-1,2,3,4-tetrahydroquinolin-7-yl)oxy)butyl)amino)-5,6-dihydro-4H-imidazo[4,5,1-ij]quinolin-2(1H)-one], the Ki under setting [1] is 0.0401 µM.

Consider `CN[C@@H]1Cc2cccc3c2n(c(=O)n3CCOCCOCCCCc2ccccc2)C1` [SC50, (R)-5-(methylamino)-1-(2-(2-(4-phenylbutoxy)ethoxy)ethyl)-5,6-dihydro-4H-imidazo[4,5,1-ij]quinolin-2(1H)-one], for which the Ki under setting [1] is 0.111 µM.

Regarding `CN[C@@H]1Cc2cccc3c2n(c(=O)n3CCCCCCCCCCCCOc2ccc3c(c2)NC(=O)CC3)C1` [SC51, (R)-5-(methylamino)-1-(12-((2-oxo-1,2,3,4-tetrahydroquinolin-7-yl)oxy)dodecyl)-5,6-dihydro-4H-imidazo[4,5,1-ij]quinolin-2(1H)-one], the Ki under setting [1] is 0.284 µM.

For `O=C1CCc2ccc(OCCCCN3CCCN(c4ccc(O)c5[nH]c(=O)ccc45)CC3)cc2N1` [SC52, 8-hydroxy-5-(4-(4-((2-oxo-1,2,3,4-tetrahydroquinolin-7-yl)oxy)butyl)-1,4-diazepan-1-yl)quinolin-2(1H)-one], the Ki under setting [1] was 0.0016 µM and the Ki (active data set, ref ChEMBL, read-out: KI / binding affinity) was under 0.002 µM.

In the case of `CCCN(CCN1CCN(c2ccc(-c3ccccc3)cc2)CC1)[C@H]1CCc2nc(N)sc2C1` [SC53, (S)-N6-(2-(4-([1,1'-biphenyl]-4-yl)piperazin-1-yl)ethyl)-N6-propyl-4,5,6,7-tetrahydrobenzo[d]thiazole-2,6-diamine], the Ki under setting [1] was 0.264 µM.

Regarding `CCCN(CCN1CCN(c2cccc3ncccc23)CC1)[C@H]1CCc2nc(N)sc2C1` [SC55, (S)-N6-propyl-N6-(2-(4-(quinolin-5-yl)piperazin-1-yl)ethyl)-4,5,6,7-tetrahydrobenzo[d]thiazole-2,6-diamine], the Ki under setting [1] is 0.0577 µM.

As to `CCCN(CCN1CCN(c2nccc3ccccc23)CC1)[C@H]1CCc2nc(N)sc2C1` [SC56, (S)-N6-(2-(4-(isoquinolin-1-yl)piperazin-1-yl)ethyl)-N6-propyl-4,5,6,7-tetrahydrobenzo[d]thiazole-2,6-diamine], the Ki under setting [1] was 0.269 µM.

As to `CCCN(CCN1CCN(c2ccnc3ccccc23)CC1)[C@H]1CCc2nc(N)sc2C1` [SC57, (S)-N6-propyl-N6-(2-(4-(quinolin-4-yl)piperazin-1-yl)ethyl)-4,5,6,7-tetrahydrobenzo[d]thiazole-2,6-diamine], the Ki (read-out: KI) is 0.109 µM.

Consider `Clc1ccc(N2CCN(CCCCNc3noc(-c4ccccc4)n3)CC2)cc1` [SC62, N-[4-[4-(4-chlorophenyl)piperazin-1-yl]butyl]-5-phenyl-1,2,4-oxadiazol-3-amine;hydrochloride], for which the Ki under setting [2] is 79 µM.

Take `COc1cc2c(cc1OC)CN(C=Nc1ccc3c(c1)C1SCCSC1C3)CC2` (stereo not drawn) [SC63, N-(3,4a,9,9a-tetrahydro-2H-indeno[1,2-b][1,4]dithiin-6-yl)-1-(6,7-dimethoxy-3,4-dihydro-1H-isoquinolin-2-yl)methanimine]: the Ki under setting [2] was over 100 µM.

Take `COc1cc2c(cc1OC)CN(C=Nc1ccc3c(c1)C1SCCSC1CC3)CC2` (stereo not drawn) [SC64, N-(2,3,4a,5,6,10b-hexahydrobenzo[f][1,4]benzodithiin-9-yl)-1-(6,7-dimethoxy-3,4-dihydro-1H-isoquinolin-2-yl)methanimine]: the Ki under setting [2] is over 300 µM.

On to `COc1ccc2[nH]c3c(c2c1)CCN=C3c1cc([N+](=O)[O-])cn1C` [SC65, 6-methoxy-1-(1-methyl-4-nitropyrrol-2-yl)-4,9-dihydro-3H-pyrido[3,4-b]indole], for which, under setting [2], the Ki is 200 µM.

For `COc1cc2c(cc1OC)CN(C=Nc1ccc3c(c1)C1SCCSC1CC3)CC2` (stereo not drawn) [SC66, N-(2,3,4a,5,6,10b-hexahydrobenzo[f][1,4]benzodithiin-9-yl)-1-(6,7-dimethoxy-3,4-dihydro-1H-isoquinolin-2-yl)methanimine], the Ki under setting [2] was over 100 µM.

Consider `COc1cc2c(cc1OC)CN(C=Nc1ccc3c(c1)C(O)CC3)CC2` (stereo not drawn) [SC67, 6-[(6,7-dimethoxy-3,4-dihydro-1H-isoquinolin-2-yl)methylideneamino]-2,3-dihydro-1H-inden-1-ol], for which, under setting [2], the Ki is over 300 µM.

Turning to `OCc1cccn2ncc(CN3CCN(c4ccc(Cl)cc4)CC3)c12` [SC70, [3-[[4-(4-chlorophenyl)piperazin-1-yl]methyl]pyrazolo[1,5-a]pyridin-4-yl]methanol], under setting [2], the Ki is 79 µM.

Take `N#CC(C#N)=Cc1ccc(CN2CCN(c3ccccc3)CC2)[nH]1` [SC71, 2-[[5-[(4-phenylpiperazin-1-yl)methyl]-1H-pyrrol-2-yl]methylidene]propanedinitrile]: the Ki under setting [2] was over 100 µM.

For `NC(=O)C[S@@+]([O-])C(c1ccccc1)c1ccccc1` [SC72, 2-[(R)-benzhydrylsulfinyl]acetamide], the Ki is over 100 µM.

For `CCCNC1CCn2ncc(C(=O)OC)c2C1` (stereo not drawn) [SC94, methyl 5-(propylamino)-4,5,6,7-tetrahydropyrazolo[1,5-a]pyridine-3-carboxylate], under setting [2], the Ki was over 100 µM.

As for `Fc1ccc(N2CCN(Cc3cn4ccncc4n3)CC2)cc1` [SC95, 2-[[4-(4-fluorophenyl)piperazin-1-yl]methyl]imidazo[1,2-a]pyrazine], the Ki under setting [2] was 68 µM.

For `Cc1ccc(CNCC2(F)CCN(C(=O)c3cc(Br)cs3)CC2)nc1` [SC96, (4-bromothiophen-2-yl)-[4-fluoro-4-[[(5-methylpyridin-2-yl)methylamino]methyl]piperidin-1-yl]methanone], the Ki under setting [2] was 100 µM.

In the case of `CCCN(CCC)[C@@H]1CCn2nccc2C1` [SC97, (5R)-N,N-dipropyl-4,5,6,7-tetrahydropyrazolo[1,5-a]pyridin-5-amine], the Ki under setting [2] is 55 µM.

Take `FCCOc1ccc(N2CCN(Cc3cnn4ccccc34)CC2)cc1` [SC98, 3-[[4-[4-(2-fluoroethoxy)phenyl]piperazin-1-yl]methyl]pyrazolo[1,5-a]pyridine]: the Ki under setting [2] is 79 µM.

For the molecule `CCCNCCCCNC(=O)c1ccc(-c2ccccc2)cc1` [SC99, 4-phenyl-N-[4-(propylamino)butyl]benzamide], the Ki under setting [2] was over 100 µM.

As for `COc1cccc(CCc2ccccc2OCCCCN2CCN(c3ccc(F)cc3)CC2)c1` [SC100, 1-(4-fluorophenyl)-4-[4-[2-[2-(3-methoxyphenyl)ethyl]phenoxy]butyl]piperazine], the Ki under setting [2] is 1320 µM.

Take `COc1cccc(CCc2ccccc2OCCN2CCN(c3ncccn3)CC2)c1` [SC101, 2-[4-[2-[2-[2-(3-methoxyphenyl)ethyl]phenoxy]ethyl]piperazin-1-yl]pyrimidine]: the Ki under setting [2] was 629 µM.

For `COc1cccc(CCc2ccccc2OCCCCN2CCN(c3cccc(Cl)c3)CC2)c1` [SC102, 1-(3-chlorophenyl)-4-[4-[2-[2-(3-methoxyphenyl)ethyl]phenoxy]butyl]piperazine], the Ki under setting [2] was over 1000 µM.

For `COc1cccc(CCc2ccccc2OCCCCCN2CCN(c3cccc(Cl)c3)CC2)c1` [SC103, 1-(3-chlorophenyl)-4-[5-[2-[2-(3-methoxyphenyl)ethyl]phenoxy]pentyl]piperazine], the Ki under setting [2] was over 1000 µM.

For `COc1cccc(CCc2ccccc2OCCN2CCN(c3cccc(C(F)(F)F)c3)CC2)c1` [SC104, 1-[2-[2-[2-(3-methoxyphenyl)ethyl]phenoxy]ethyl]-4-[3-(trifluoromethyl)phenyl]piperazine], the Ki under setting [2] was over 1000 µM.

Turning to `COc1cccc(CCc2ccccc2OCCCN2CCN(c3cccc(C(F)(F)F)c3)CC2)c1` [SC105, 1-[3-[2-[2-(3-methoxyphenyl)ethyl]phenoxy]propyl]-4-[3-(trifluoromethyl)phenyl]piperazine], under setting [2], the Ki is 1410 µM.

For `COc1cccc(CCc2ccccc2OCCCN2CCN(c3ccc(F)cc3)CC2)c1` [SC106, 1-(4-fluorophenyl)-4-[3-[2-[2-(3-methoxyphenyl)ethyl]phenoxy]propyl]piperazine], under setting [2], the Ki was 655 µM.

On to `COc1cccc(CCc2ccccc2OCCCN2CCN(c3cccc(Cl)c3)CC2)c1` [SC107, 1-(3-chlorophenyl)-4-[3-[2-[2-(3-methoxyphenyl)ethyl]phenoxy]propyl]piperazine], for which the Ki under setting [2] is 298 µM.

Take `COc1cccc(CCc2ccccc2OCCCCCN2CCN(c3ccccc3OC)CC2)c1` [SC108, 1-(2-methoxyphenyl)-4-[5-[2-[2-(3-methoxyphenyl)ethyl]phenoxy]pentyl]piperazine]: under setting [2], the Ki is over 1000 µM.

As to `COc1cccc(CCc2ccccc2OCCN2CCN(c3ccc(F)cc3)CC2)c1` [SC109, 1-(4-fluorophenyl)-4-[2-[2-[2-(3-methoxyphenyl)ethyl]phenoxy]ethyl]piperazine], under setting [2], the Ki is over 1000 µM.

On to `COc1cccc(CCc2ccccc2OCCCCN2CCN(c3cccc(C(F)(F)F)c3)CC2)c1` [SC110, 1-[4-[2-[2-(3-methoxyphenyl)ethyl]phenoxy]butyl]-4-[3-(trifluoromethyl)phenyl]piperazine], for which the Ki under setting [2] is over 1000 µM.

As to `COc1cccc(CCc2ccccc2OCCCCCN2CCN(C)CC2)c1` [SC111, 1-[5-[2-[2-(3-methoxyphenyl)ethyl]phenoxy]pentyl]-4-methylpiperazine], the Ki under setting [2] is over 1000 µM.

On to `COc1cccc(CCc2ccccc2OCCCCN2CCc3cc(OC)c(OC)cc3C2)c1` [SC112, 6,7-dimethoxy-2-[4-[2-[2-(3-methoxyphenyl)ethyl]phenoxy]butyl]-3,4-dihydro-1H-isoquinoline], for which the Ki under setting [2] was over 1000 µM.
